In ChEMBL document CHEMBL1157410, “7-aryl 1,5-dihydro-benzo[e][1,4]oxazepin-2-ones and analogs as non-steroidal progesterone receptor antagonists” (Bioorg Med Chem, 2008):
pIC50: −log10 of the molar value.

Legend:
Rattus norvegicus = experiment: Activity in ovariectomized rat assessed as inhibition of progesterone-induced decidualization at 3 mg/kg, po; assay type: functional; set-up: scale not given: the % may be the effect or the level left
Androgen receptor = target: T1, Androgen receptor (Homo sapiens, UniProt P10275)
T1 sequence (P10275 whole entry): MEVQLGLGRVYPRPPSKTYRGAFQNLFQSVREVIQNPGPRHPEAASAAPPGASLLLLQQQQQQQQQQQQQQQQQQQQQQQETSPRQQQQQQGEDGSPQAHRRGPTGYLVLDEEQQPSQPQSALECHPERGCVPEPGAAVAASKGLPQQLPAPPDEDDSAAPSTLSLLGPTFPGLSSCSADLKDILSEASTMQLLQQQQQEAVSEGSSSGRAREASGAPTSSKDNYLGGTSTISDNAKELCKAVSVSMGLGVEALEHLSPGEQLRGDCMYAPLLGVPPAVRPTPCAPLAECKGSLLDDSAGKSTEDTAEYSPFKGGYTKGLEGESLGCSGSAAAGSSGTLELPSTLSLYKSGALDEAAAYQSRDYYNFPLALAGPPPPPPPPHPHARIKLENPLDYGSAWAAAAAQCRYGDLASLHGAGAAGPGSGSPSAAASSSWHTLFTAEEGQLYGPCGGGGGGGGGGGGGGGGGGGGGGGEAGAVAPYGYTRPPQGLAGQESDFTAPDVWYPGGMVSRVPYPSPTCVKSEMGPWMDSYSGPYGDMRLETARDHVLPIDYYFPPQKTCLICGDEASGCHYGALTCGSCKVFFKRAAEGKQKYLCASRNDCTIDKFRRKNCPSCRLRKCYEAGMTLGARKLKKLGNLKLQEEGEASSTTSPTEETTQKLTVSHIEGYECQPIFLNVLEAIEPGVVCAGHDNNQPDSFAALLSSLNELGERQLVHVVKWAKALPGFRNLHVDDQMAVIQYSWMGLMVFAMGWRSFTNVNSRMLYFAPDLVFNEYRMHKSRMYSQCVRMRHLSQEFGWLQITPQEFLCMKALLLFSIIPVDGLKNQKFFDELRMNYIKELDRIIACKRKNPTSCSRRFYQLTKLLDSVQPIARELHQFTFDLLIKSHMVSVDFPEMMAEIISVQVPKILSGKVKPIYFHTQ
Description: Antagonist activity at cloned androgen receptor-ligand binding domain expressed in african green monkey COS7 cells by two hybrid luciferase assay

Progesterone receptor = target: T2, Progesterone receptor (Homo sapiens, UniProt P06401); experiment: Inhibition of progesterone receptor mediated progesterone-induced alkaline phosphatase activity in human T47D cells; assay type: cell-based
T2 sequence (P06401 whole entry): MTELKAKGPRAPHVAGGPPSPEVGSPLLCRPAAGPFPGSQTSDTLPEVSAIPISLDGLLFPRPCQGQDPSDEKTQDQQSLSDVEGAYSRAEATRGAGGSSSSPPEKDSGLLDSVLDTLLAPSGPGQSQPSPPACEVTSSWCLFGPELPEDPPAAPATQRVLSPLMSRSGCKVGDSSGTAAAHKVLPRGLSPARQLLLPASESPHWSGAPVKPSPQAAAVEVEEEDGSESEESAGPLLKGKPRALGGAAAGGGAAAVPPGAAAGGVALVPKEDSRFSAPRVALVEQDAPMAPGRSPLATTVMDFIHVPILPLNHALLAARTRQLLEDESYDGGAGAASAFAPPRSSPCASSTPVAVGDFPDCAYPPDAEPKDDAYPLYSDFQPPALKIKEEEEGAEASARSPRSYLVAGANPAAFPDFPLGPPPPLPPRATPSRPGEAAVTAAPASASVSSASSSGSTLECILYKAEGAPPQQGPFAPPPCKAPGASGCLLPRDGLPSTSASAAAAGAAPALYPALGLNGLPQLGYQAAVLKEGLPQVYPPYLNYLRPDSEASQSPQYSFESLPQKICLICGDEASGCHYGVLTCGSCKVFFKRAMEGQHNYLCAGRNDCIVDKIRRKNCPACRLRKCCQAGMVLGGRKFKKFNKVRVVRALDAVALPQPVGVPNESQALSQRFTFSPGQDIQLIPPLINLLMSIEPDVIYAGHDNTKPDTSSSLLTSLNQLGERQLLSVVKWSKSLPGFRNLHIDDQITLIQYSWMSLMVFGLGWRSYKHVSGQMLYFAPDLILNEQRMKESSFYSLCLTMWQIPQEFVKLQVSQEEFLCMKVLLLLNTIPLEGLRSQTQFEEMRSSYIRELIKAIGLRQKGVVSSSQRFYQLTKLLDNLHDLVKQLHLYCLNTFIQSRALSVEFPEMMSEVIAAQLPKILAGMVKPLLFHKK

[1] = Selectivity for progesterone receptor over androgen receptor
[2] = Selectivity for progesterone receptor over estrogen receptor
[3] = Selectivity for progesterone receptor over glucocorticoid receptor
[4] = Selectivity for progesterone receptor over mineralocorticoid receptor

In the case of `CCC1(c2ccco2)OCC(=O)Nc2ccc(-c3cc(F)cc(C#N)c3)cc21` (stereo unspecified), the Activity (Rattus norvegicus) was 50%, the pIC50 (Androgen receptor) was 6.16 and the pIC50 (Progesterone receptor) was 7.93.

`CC1(C)OCC(=O)Nc2ccc(-c3cc(F)cc(C#N)c3)cc21` showed an Activity (Rattus norvegicus) of 50%, a Selectivity ratio [1] of over 100 and a Selectivity ratio [2] of over 100. For the same molecule, the Selectivity ratio [3] was over 100, the pIC50 (Androgen receptor) was under 5.52 and the pIC50 (Progesterone receptor) was 7.60. The Selectivity ratio [4] was over 100.

With `N#Cc1cc(F)cc(-c2ccc3c(c2)C(c2ccco2)(c2ccco2)OCC(=O)N3)c1` the Selectivity ratio [1] was over 100, the Selectivity ratio [2] was over 100 and the Selectivity ratio [3] was over 100. The pIC50 (Androgen receptor) was under 5.52, the pIC50 (Progesterone receptor) was 7.88 and the Selectivity ratio [4] was over 100.
